Laboratory results published in patent publication US7867522B2, “Method of wound/burn healing using copper-zinc compositions” (JR Chem, LLC, priority 2006, dated 2011).

Experiments:
Assay type in all cases: in vivo, human
pressure ulcer = assay: topical treatment of pressure ulcers in a diabetic patient
Source text: A diabetic is suffering from a stage I pressure ulcer characterized by non-blanchable erythema on intact skin. A gel composition suitable for treatment of skin containing an effective amount of copper-zinc malonate active ingredient is routinely applied to the stage I pressure ulcer twice daily.
A diabetic is suffering from a stage II pressure ulcer characterized by partial skin loss involving the epidermis, dermis, or both. The lesion is superficial and presents clinically as a shallow center. A liquid composition suitable for treatment of skin containing an effective amount of copper-zinc malonate active ingredient is applied to the shallow center four times a day for 2 months.
A diabetic is suffering from a stage III pressure ulcer characterized by full thickness skin loss involving damage or necrosis of subcutaneous tissue that extends down to, but not through, underlying fascia. The sore presents clinically as a deep crater. A liquid composition suitable for treatment of skin containing an effective amount of one or more copper-zinc malonate active ingredients is applied to the crater four times a day for 1 month.
A diabetic is suffering from a stage IV pressure ulcer characterized by full thickness skin loss with extensive destruction, and tissue necrosis. A liquid composition suitable for treatment of skin containing an effective amount of copper-zinc malonate active ingredient is applied to the dying tissue four times a day for 1 month.

[1] = test system: third degree burns on their left wrist and stomach; assay: topical treatment of third degree burns; details: person; liquid composition applied four times a day for 1 month
Source text: A person truck accident victim is suffering from third degree burns on their left wrist and stomach. A liquid composition suitable for treatment of skin containing an effective amount of copper-zinc malonate active ingredient is applied to the third degree burn four times a day for 1 month.

[2] = test system: bee sting characterized by pain and swelling; assay: topical treatment of a bee sting; details: child; liquid composition containing 0.05% active ingredient, four times a day for 2 days
Source text: A child is suffering from a bee sting characterized by pain and swelling. A liquid composition suitable for treatment of skin containing 0.05% copper-zinc malonate active ingredient is applied to the sting four times a day for 2 days.

open soars on their feet = assay: topical treatment of open sores on the feet; details: person, composition applied to the wound twice a day for 10 days
Source text: A person is suffering from open soars on their feet. A composition containing copper-zinc malonate is applied to the wound twice a day for 10 days. Healing time is reduced.

[3] = test system: 6 inch laceration to their right forearm; assay: topical treatment of a forearm laceration; details: person; emulsion composition applied three times a day for 1 week
Source text: A person is suffering from 6 inch laceration to their right forearm. An emulsion composition suitable for treatment of skin containing an effective amount of copper-zinc malonate active ingredient is applied to their laceration three times a day for 1 week.

[4] = liquid composition applied four times a day for 1 month

**Q.** With copper-zinc malonate as the substance, how does the “stage I pressure ulcer” value (pressure ulcer; gel composition applied twice daily) read?
**A.** The value was “reduced or eliminated”.

**Q.** And the “stage III pressure ulcer” value (pressure ulcer; [4])?
**A.** The value was “reduced or eliminated”.

**Q.** What about the “stage IV pressure ulcer” value (pressure ulcer; [4]) of the same substance?
**A.** The value was “reduced or eliminated”.

**Q.** And the “stage II pressure ulcer” value (pressure ulcer; liquid composition applied four times a day for 2 months)?
**A.** The value was “reduced or eliminated”.

**Q.** What about the “burnt wrist and stomach, healing time” value [1] of the same substance?
**A.** Its value is “improve, and healing time is reduced”.

**Q.** What about the bee sting [2] of the same substance?
**A.** Its bee sting is “reduced or eliminated”.

**Q.** What about the healing time (open soars on their feet) of the same substance?
**A.** The healing time was “reduced”.

**Q.** What about the “healing and time necessary for the wound to close” value [3] of the same substance?
**A.** The value was “promotes healing and decreases the time necessary for the wound to close”.
